# From patent US9757408B2 (Hayashibara Co., Ltd., priority 2010, dated 2017)
# Marks after values point to notes of the source that are not given here.
# What was measured:
# [1] = system: mice with colitis induced by dextran sulfate sodium; test: Dextran sulfate sodium colitis mice: diarrhea/hematochezia scores, DAI, haptoglobin (Experiment 13); format: in vivo, C57BL/6 mice; details: dextran sulfate sodium intake; for Content of haptoglobin: blood on 11th day
# Experimental: Dextran sulfate sodium (commercialized by MP Biomedicals, CA, USA, molecular weight of 36,000 to 50,000) was dissolved in tap water, and all the mice of these five groups consisting of eight heads each were allowed to freely take the solution for five days (Experiment groups 2 to 5). […] The eight mice of the remaining one group were administered through a gastric tube with PBS once a day at a dose of 0.2 mL/head over 11 days from the day of initiating the administration of dextran sulfate sodium (Experiment group 2). The five mice of one group, which had not been administered with dextran sulfate sodium, were bred for 11 days on the normal feed while allowing them to take tap water freely (Experiment group 1).
# The mice were weighed and their degree of diarrhea and hematochezia were macroscopically observed every day over 11 days from the day of initiating the intake of dextran sulfate sodium. The body weight reduction percentage (%) was determined by dividing the body weight of a mouse at 11th day after initiating the intake of dextran sulfate sodium by the body weight of the mouse at the day of initiating the intake, and multiplying the value by 100, and subtracting the resulting value from 100. The scores of diarrhea and hematochezia and the body weight reduction percentage (%) in each mouse were scored according to the criteria as shown in Table 13. For each group, the average of the total scores of diarrhea and hematochezia on days ranging from the day (intake day 0) of initiating the intake of dextran sulfate sodium to 11th day therefrom (intake day 10) are determined and shown in Table 14. The total scores of diarrhea, hematochezia, and body weight reduction percentage for each mouse at 11th day (intake day 10) after initiating the intake of dextran sulfate sodium are calculated for disease activity index (DAI) used as an index for colitis, averaged for each group, and shown in Table 14. On 11th day after initiating the intake of dextran sulfate sodium, each mouse was collected blood, followed by assaying haptoglobin or an acute phase protein, as an index for inflammatory, on an ELISA kit commercialized by Life Diagnostics USA, and averaging the data for each group. The results are in Table 14 in parallel. Since one mouse in Experiment group 2 administered with only dextran sulfate sodium was dead at 11th day after initiating the intake of dextran sulfate sodium, the results of Experiment group 2 at 11th day (intake day 10) after initiating the intake of dextran sulfate sodium represent the average of seven mice.
# [2] = system: IL-4 production of spleen cells; test: IL-4 production of spleen cells stimulated with anti-CD3 antibody, from gel-treated mice (Experiment 16); format: in vivo, NC/Nga mice; details: for production level of IL-4 of spleen cells stimulated with the anti-CD3 antibody: compared to mice applied with gel prepared by adding refined water (Experiment group 1); for Ratio of IL-4/IFN-γ: spleen cells stimulated with anti-CD3 antibody; for Ratio of IL-4/IFN-γ / Content of IL-4: picryl chloride-sensitized mice applied with gel; for Content of IL-4: supernatant of spleen cells stimulated with anti-CD3 antibody
# Experimental: (§1) On Friday of the 6th week of the induction (46th day after initiating the application), all the mice were sacrificed, followed by isolating their spleens and collecting spleen cells in usual manner. […] To each well 2 μg/mL of “Purified Mouse CD3ε Monoclonal Antibody”, a product name of an anti-CD3 antibody, commercialized by Cosmo Bio Co., Ltd., Tokyo, Japan, was added, and the cells were incubated at 37° C. for three days in a 5% v/v CO2 incubator, followed by assaying the levels of cytokines in each supernatant thereof.
# (§2) The results are in Table 19 in parallel.
# [3] = system: IL-5 production of spleen cells; test: IL-5 production of spleen cells stimulated with anti-CD3 antibody, from gel-treated mice (Experiment 16); format: in vivo, NC/Nga mice; details: for production level of IL-5 of spleen cells stimulated with the anti-CD3 antibody: compared to mice applied with gel prepared by adding refined water (Experiment group 1); for Content of IL-5: supernatant of spleen cells stimulated with anti-CD3 antibody, picryl chloride-sensitized mice applied with gel
# Experimental: as §1, §2
# [4] = system: mouse with severe acute pancreatitis induced by choline-deficient ethionine-added feed; test: Severe acute pancreatitis induced by choline-deficient ethionine-added feed, survival (Experiment 15); format: in vivo, CD1(ICR) mice
# From the text: After seven days of a preliminary breeding, the mice were fasted for one day and allowed to freely take a choline-deficient ethionine-added feed, produced by Oriental Yeast Co., Ltd., Tokyo, Japan, for three days from the next day. Thereafter, the mice were fed on normal feed again and then fed on the choline-deficient ethionine-added feed. […] Eight mice in the remaining one group as a control were orally administered through a gastric tube with distilled water twice a day every morning and evening in a liquid volume of 0.2 mL/head/shot from the initiation of fasting. The survival number of mice in each group was macroscopically confirmed up to seven days from the initiation of taking the choline-deficient ethionine-added feed, and the survival rate (%) of mice in each group was determined. The survival rate (%) of mice was determined similarly as in Experiment 1.
# [5] = oral 46 mg/kg body weight/shot twice a day
# [6] = oral 139 mg/kg body weight/shot twice a day
# [7] = oral 124 mg/kg body weight/shot twice a day
structure (smiles),measurement,setting,value
"Nc1c2ncn([C@@H]3O[C@H](CO)[C@@H](O)[C@H]3O)c2nc[n+]1[O-] [ANO, adenosine N1-oxide]",Content of haptoglobin,[1]; 33 mg/kg orally once a day,3.7 mg/mL
same,"Total scores of diarrhea and hematochezia, day 0","[1]; 33 mg/kg orally once a day, day 0 after initiating the intake",0
same,"Total scores of diarrhea and hematochezia, day 1",[1]; 33 mg/kg orally once a day,0
same,"Total scores of diarrhea and hematochezia, day 2",[1]; 33 mg/kg orally once a day,0
same,"Total scores of diarrhea and hematochezia, day 3",[1]; 33 mg/kg orally once a day,0
same,"Total scores of diarrhea and hematochezia, day 4",[1]; 33 mg/kg orally once a day,0.3
same,"Total scores of diarrhea and hematochezia, day 5",[1]; 33 mg/kg orally once a day,0.3
same,"Total scores of diarrhea and hematochezia, day 6",[1]; 33 mg/kg orally once a day,0.5
same,"Total scores of diarrhea and hematochezia, day 7",[1]; 33 mg/kg orally once a day,0.6
same,"Total scores of diarrhea and hematochezia, day 8",[1]; 33 mg/kg orally once a day,0.9
same,"Total scores of diarrhea and hematochezia, day 9",[1]; 33 mg/kg orally once a day,0.8
same,"DAI (total scores of diarrhea, hematochezia, and body weight reduction percentage), day 10",[1]; 33 mg/kg orally once a day,3.8*
same,"Total scores of diarrhea and hematochezia, day 10",[1]; 33 mg/kg orally once a day,0.7
same,Content of haptoglobin,[1]; 100 mg/kg orally once a day,2.9* mg/mL
same,"Total scores of diarrhea and hematochezia, day 0","[1]; 100 mg/kg orally once a day, day 0",0
same,"Total scores of diarrhea and hematochezia, day 1",[1]; 100 mg/kg orally once a day,0
same,"Total scores of diarrhea and hematochezia, day 2",[1]; 100 mg/kg orally once a day,0
same,"Total scores of diarrhea and hematochezia, day 3",[1]; 100 mg/kg orally once a day,0.3
same,"Total scores of diarrhea and hematochezia, day 4",[1]; 100 mg/kg orally once a day,0.4
same,"Total scores of diarrhea and hematochezia, day 5",[1]; 100 mg/kg orally once a day,0.4
same,"Total scores of diarrhea and hematochezia, day 6",[1]; 100 mg/kg orally once a day,0.5
same,"Total scores of diarrhea and hematochezia, day 7",[1]; 100 mg/kg orally once a day,0.6
same,"Total scores of diarrhea and hematochezia, day 8",[1]; 100 mg/kg orally once a day,0.6
same,"Total scores of diarrhea and hematochezia, day 9",[1]; 100 mg/kg orally once a day,0.7
same,"DAI (total scores of diarrhea, hematochezia, and body weight reduction percentage), day 10",[1]; 100 mg/kg orally once a day,3.4**
same,"Total scores of diarrhea and hematochezia, day 10",[1]; 100 mg/kg orally once a day,0.6
same,production level of IL-4 of spleen cells stimulated with the anti-CD3 antibody,[2],significantly lower
same,production ratio of IL-4/IFN-γ of spleen cells stimulated with the anti-CD3 antibody,[2]; spleen cells of gel-treated mice,close to that of the mice of the normal group
same,Ratio of IL-4/IFN-γ,[2],0.32
same,Content of IL-4,[2],2.8* ng/mL
same,production level of IL-5 of spleen cells stimulated with the anti-CD3 antibody,[3],tended to decrease
same,Content of IL-5,[3],157 ng/mL
same,"Survival rate (%) of mice, 48 Hours",[4]; [5],100.0%
same,"Survival rate (%) of mice, 70 Hours",[4]; [5],100.0%
same,"Survival rate (%) of mice, 78 Hours",[4]; [5],50.0%
same,"Survival rate (%) of mice, 94 Hours",[4]; [5],25.0%
same,"Survival rate (%) of mice, 102 Hours",[4]; [5],12.5%
same,"Survival rate (%) of mice, 144 Hours",[4]; [5],12.5%
same,"Survival rate (%) of mice, 48 Hours",[4]; [6],100.0%
same,"Survival rate (%) of mice, 70 Hours",[4]; [6],87.5%
same,"Survival rate (%) of mice, 78 Hours",[4]; [6],75.0%
same,"Survival rate (%) of mice, 94 Hours",[4]; [6],75.0%
same,"Survival rate (%) of mice, 102 Hours",[4]; [6],75.0%
same,"Survival rate (%) of mice, 144 Hours",[4]; [6],75.0%
"OC[C@H]1O[C@@H](n2cnc3c(O)ncnc32)[C@H](O)[C@@H]1O [IN, inosine]",Content of haptoglobin,[1]; 94 mg/kg orally once a day,3.9 mg/mL
same,"Total scores of diarrhea and hematochezia, day 0","[1]; 94 mg/kg orally once a day, day 0",0
same,"Total scores of diarrhea and hematochezia, day 1",[1]; 94 mg/kg orally once a day,0
same,"Total scores of diarrhea and hematochezia, day 2",[1]; 94 mg/kg orally once a day,0
same,"Total scores of diarrhea and hematochezia, day 3",[1]; 94 mg/kg orally once a day,0.1
same,"Total scores of diarrhea and hematochezia, day 4",[1]; 94 mg/kg orally once a day,0.8
same,"Total scores of diarrhea and hematochezia, day 5",[1]; 94 mg/kg orally once a day,1.1
same,"Total scores of diarrhea and hematochezia, day 6",[1]; 94 mg/kg orally once a day,1.2
same,"Total scores of diarrhea and hematochezia, day 7",[1]; 94 mg/kg orally once a day,1.1
same,"Total scores of diarrhea and hematochezia, day 8",[1]; 94 mg/kg orally once a day,1.2
same,"Total scores of diarrhea and hematochezia, day 9",[1]; 94 mg/kg orally once a day,1.2
same,"DAI (total scores of diarrhea, hematochezia, and body weight reduction percentage), day 10",[1]; 94 mg/kg orally once a day,4.1
same,"Total scores of diarrhea and hematochezia, day 10",[1]; 94 mg/kg orally once a day,1.3
same,production level of IL-4 of spleen cells stimulated with the anti-CD3 antibody,[2],showed no difference
same,Ratio of IL-4/IFN-γ,[2],0.70
same,Content of IL-4,[2],9.3 ng/mL
same,production level of IL-5 of spleen cells stimulated with the anti-CD3 antibody,[3],showed no difference
same,Content of IL-5,[3],209 ng/mL
same,"Survival rate (%) of mice, 48 Hours",[4]; [7],100.0%
same,"Survival rate (%) of mice, 70 Hours",[4]; [7],60.0%
same,"Survival rate (%) of mice, 78 Hours",[4]; [7],62.5%
same,"Survival rate (%) of mice, 94 Hours",[4]; [7],50.0%
same,"Survival rate (%) of mice, 102 Hours",[4]; [7],25.0%
same,"Survival rate (%) of mice, 144 Hours",[4]; [7],12.5%
